Source: article PMC10824666 (Nature Cancer, 2023)
Like-named read-outs stand apart in the source and are kept apart here.

Columns and labels:
YSK4 = target: T1, YSK4 (Homo sapiens, UniProt Q56UN5); assay: biochemical; parameters: Eurofins DiscoverX kinase panel, competitive binding assay at 1 uM, percent of DMSO control; details: competitive binding, percent of DMSO control
T1 construct: gene MAP3K19
T1 sequence (Q56UN5 1-1328): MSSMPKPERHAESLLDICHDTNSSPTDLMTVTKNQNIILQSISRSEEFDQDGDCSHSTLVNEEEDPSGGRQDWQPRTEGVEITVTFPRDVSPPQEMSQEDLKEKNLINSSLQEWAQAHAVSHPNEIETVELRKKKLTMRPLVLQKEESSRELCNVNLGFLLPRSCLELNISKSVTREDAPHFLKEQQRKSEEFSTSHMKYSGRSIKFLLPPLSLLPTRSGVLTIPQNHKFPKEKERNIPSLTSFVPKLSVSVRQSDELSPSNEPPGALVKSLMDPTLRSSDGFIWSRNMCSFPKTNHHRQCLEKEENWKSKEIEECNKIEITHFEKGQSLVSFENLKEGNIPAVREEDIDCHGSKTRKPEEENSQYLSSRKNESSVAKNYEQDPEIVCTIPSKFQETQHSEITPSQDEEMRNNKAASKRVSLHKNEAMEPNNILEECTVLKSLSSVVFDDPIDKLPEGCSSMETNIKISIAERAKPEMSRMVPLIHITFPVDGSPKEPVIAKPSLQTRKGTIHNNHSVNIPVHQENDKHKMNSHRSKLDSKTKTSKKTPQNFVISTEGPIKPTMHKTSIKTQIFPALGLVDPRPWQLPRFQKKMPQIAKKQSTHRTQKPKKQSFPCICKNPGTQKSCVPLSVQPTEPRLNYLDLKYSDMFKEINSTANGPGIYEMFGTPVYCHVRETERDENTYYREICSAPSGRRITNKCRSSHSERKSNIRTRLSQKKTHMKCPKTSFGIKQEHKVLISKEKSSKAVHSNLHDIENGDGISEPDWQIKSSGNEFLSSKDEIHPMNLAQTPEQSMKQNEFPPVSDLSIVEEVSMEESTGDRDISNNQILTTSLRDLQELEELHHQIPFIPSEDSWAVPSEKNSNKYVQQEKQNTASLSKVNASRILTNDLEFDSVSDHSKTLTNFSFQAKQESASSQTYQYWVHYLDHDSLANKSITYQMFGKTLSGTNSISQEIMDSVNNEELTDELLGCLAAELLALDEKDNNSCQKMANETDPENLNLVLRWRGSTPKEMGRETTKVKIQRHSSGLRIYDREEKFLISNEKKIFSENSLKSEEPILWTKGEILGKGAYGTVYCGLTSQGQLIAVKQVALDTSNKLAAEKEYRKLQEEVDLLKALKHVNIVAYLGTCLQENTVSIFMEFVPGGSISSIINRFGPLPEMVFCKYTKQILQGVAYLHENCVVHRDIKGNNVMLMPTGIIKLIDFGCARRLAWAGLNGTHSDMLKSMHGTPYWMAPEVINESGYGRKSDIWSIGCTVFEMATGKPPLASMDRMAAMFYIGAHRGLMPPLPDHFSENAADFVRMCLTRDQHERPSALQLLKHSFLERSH
Method in brief: (§1)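 Single-point profiling at 1 µM compound in a competition-binding format against 96 kinases, read out as POC relative to control; n = 1.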

TIE2 = target: T2, TIE2 (Homo sapiens, UniProt Q02763); assay: biochemical; parameters: Eurofins DiscoverX kinase panel, competitive binding assay at 1 uM, percent of DMSO control; details: competitive binding, percent of DMSO control
T2 construct: gene TEK
T2 sequence (Q02763 whole entry): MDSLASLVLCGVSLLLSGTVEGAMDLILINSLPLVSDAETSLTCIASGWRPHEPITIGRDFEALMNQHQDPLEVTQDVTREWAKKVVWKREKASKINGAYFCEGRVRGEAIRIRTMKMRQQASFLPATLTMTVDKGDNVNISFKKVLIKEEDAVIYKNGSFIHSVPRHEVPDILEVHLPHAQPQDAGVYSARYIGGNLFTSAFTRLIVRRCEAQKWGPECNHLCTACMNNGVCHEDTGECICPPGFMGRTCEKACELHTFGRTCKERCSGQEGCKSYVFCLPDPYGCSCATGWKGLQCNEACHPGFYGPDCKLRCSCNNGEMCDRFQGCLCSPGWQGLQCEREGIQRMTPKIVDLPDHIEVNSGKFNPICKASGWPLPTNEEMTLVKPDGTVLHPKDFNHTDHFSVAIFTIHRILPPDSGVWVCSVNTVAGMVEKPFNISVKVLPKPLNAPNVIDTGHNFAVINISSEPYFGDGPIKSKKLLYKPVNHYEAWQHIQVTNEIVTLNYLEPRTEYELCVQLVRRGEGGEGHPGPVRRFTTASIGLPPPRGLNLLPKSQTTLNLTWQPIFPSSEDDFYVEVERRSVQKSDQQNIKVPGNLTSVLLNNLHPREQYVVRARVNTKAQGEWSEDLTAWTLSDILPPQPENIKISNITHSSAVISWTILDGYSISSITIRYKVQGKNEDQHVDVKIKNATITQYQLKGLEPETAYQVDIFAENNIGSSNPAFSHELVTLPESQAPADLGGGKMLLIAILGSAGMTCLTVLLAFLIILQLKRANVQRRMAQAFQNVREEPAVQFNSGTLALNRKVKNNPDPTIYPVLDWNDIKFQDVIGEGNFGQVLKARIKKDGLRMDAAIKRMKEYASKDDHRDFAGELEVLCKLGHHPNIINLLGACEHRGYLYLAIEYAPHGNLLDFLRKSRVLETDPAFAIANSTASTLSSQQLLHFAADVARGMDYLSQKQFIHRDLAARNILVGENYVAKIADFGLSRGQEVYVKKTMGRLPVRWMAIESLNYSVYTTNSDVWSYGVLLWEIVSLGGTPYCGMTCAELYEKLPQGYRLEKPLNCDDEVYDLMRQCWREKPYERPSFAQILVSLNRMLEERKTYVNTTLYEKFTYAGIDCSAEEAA
Method in brief: as §1

[1] = read-out: Kinome Profiling performed by Eurofins DiscoverX / AM-1882, 1.0 µM / POC
[2] = read-out: Kinome Profiling performed by Eurofins DiscoverX / AM-0277, 1.0 µM / POC
[3] = read-out: Kinome Profiling performed by Eurofins DiscoverX / AM-5308, 1.0 µM / POC

With `CC(C)(C)NS(=O)(=O)c1cccc(NC(=O)c2ccc(S(=O)(=O)NC(C)(C)C)cc2N2CCC3(CC2)CC3)c1` [AM-1882] the remaining activity at 1 µM (YSK4; [1]) was 87% and the remaining activity at 1 µM (TIE2; [1]) was 94.5%.

Molecule `CC(C)(CO)Nc1ccc(C(=O)Nc2cccc(S(=O)(=O)C3CCCC3)c2)c(N2CCC3(CC2)CC3)n1` [AM-0277] has a remaining activity at 1 µM (YSK4; [2]) of 100% and a remaining activity at 1 µM (TIE2; [2]) of 77%.

Work on `C[C@@H]1CN(c2cccc(NC(=O)c3ccc(NS(=O)(=O)CCO)cc3N3CCC4(CC3)CC4)n2)CCO1` [AM-5308] yielded a remaining activity at 1 µM (YSK4; [3]) of 75.5% and a remaining activity at 1 µM (TIE2; [3]) of 90%.
